# Laboratory results: US20220064214A1, “NOVEL PEPTIDES AND USES THEREOF” (CENNA BIOSCIENCES INC., priority 2019, published 2022)
# “And” between values parts separate entries of the source, which are not always exact repeats. Equal values may be shown once. Marks after values point to notes of the source that are not given here. Square brackets hold non-standard residues; d marks the D form. Peptide text beside a SMILES is read from it.
# What was measured:
# [1] = Pharmacokinetics study in rats, plasma; type: in vivo; details: rat; for plasma concentration: individual rats
# Procedure: (§1) An in-vivo study was carried out in rats to determine the pharmacokinetics (PK) of peptides P8, 8M1D and 8M2D in plasma and CSF. Each peptide was assessed through two dosage routes, intravenous (IV) and subcutaneous (SC). Three rats were assigned to each dose group with each peptide. Total of twelve rats per peptide were used.
# (§2) Blood was collected through jugular vein cannulas, and the samples were collected into tubes with K2EDTA. After centrifuging at a temperature of 2 to 8° C. at 4,000×g for 5 minutes, the resulting plasma was split into equal aliquots, frozen, and stored at −60 to −80° C. One aliquot was for PK analysis and the other was for Aβ analysis (see Example 4).
# [2] = Metabolic stability of peptides in fresh human plasma (LC/MS/MS); type: in vitro ADME; details: for rate at which metabolized in fresh human plasma (in words): compared among P8, 8M1 and 8M1D; for % Remaining / remaining at 3 h, 1 µM / remaining at 8 h, 1 µM / remaining at 24 h, 1 µM: fresh human plasma; for % Remaining: 0 h incubation; for remaining at 3 h, 1 µM: 3 h incubation; for remaining at 8 h, 1 µM: 8 h incubation; for remaining at 24 h, 1 µM: 24 h incubation
# Procedure: P8, 8M1, and 8M1D were generated according to Example 1 with purities ranging from 98.0% to 99.0%. A primary 1.00 mM stock solution was prepared in either acetonitrile or acetonitrile:water (1:1, v/v) for each peptide. A 0.200 mM working stock was made from the primary stock in acetonitrile:water (1:1, v/v), which was used for the reactions. The primary and working stock solutions were stored at −20° C. when not in use, and they were kept at room temperature for as short a time as possible when in use. Fresh human plasma were maintained by adding sodium heparin as an anticoagulant.
# The incubation procedures started when 5.00 μL of 0.2 mM (working stock solutions) of different peptides were added to 0.995 mL of fresh human plasma in a 1.7-mL snap tube. After 3, 8 and 24 hours of incubation, duplicate 50.0 μL aliquots of plasma were removed and placed into extraction tubes containing 150 μL of methanol, which served to quench any reactions, and thus incubations were ended. For each time point, the aliquotes were immediately extracted by vortex mixing and centrifugation. Resulting supernates were stored in High-Performance Liquid Chromatography (HPLC) vials and analyzed by LC/MS/MS after all samples were extracted. Valacyclovir was used as a positive control.
# LC/MS/MS analysis of the incubation solutions was conducted by initial separation of the test article peaks using chromatography prior to detection by the mass spectrometer. The LC/MS system was comprised of a HPLC coupled with a TQS-Micro or Quattro Premier (Waters, Milford, Mass.). The mobile phase was nebulized using heated nitrogen in a Z spray source/interface set to electrospray in positive ionization mode for the peptides. The ionized peptides were detected using Tandem Quadropole Mass Spectrometry (MS/MS). The data was acquired using MassLynx (Waters, Milford, Mass.).
# HPLC for the peptides and Valacyclovir control were performed with no guard columns, with a flow rate at 0.3 mL/min, with column temperature at 40° C., and autosampler temperature at 10° C. The column for peptides was MacMod ACE 2 Excel C18PFP, 100×2.1-mm, 2.0 μm, and the column for the control was Waters Atlantis T3, 150×2.1-mm, 5.0 μm. The injection loop and volumn for peptides were 50.0 μL and 20.0 μL respectively, and the ones for controls were 20.0 μL and 2.00 μL. For the Mass Spectrometer for the peptides and the Valacyclovir control, the source temperature was set to be 150° C., desolvation temperature was set to be 350° C., and polarity was set to be positive mode of electrospray ionization. Other parameters in HPLC and Mass Spectrometer are shown in Table 2.1, Table 2.2 and Table 3 below.
# [3] = Pharmacokinetics study in rats, CSF; type: in vivo; set-up: CSF concentration, Mean IV / CSF concentration, Mean SC: unit not given here; details: rat; for CSF concentration, Mean IV: 10 mg/kg IV; for CSF concentration, Mean SC: 10 mg/kg SC
# Procedure: as §1
# CSF collection was performed by first anesthetizing animals at specified time points (see Table 5) with a mixture of 80 mg/kg ketamine and 8 mg/kg xylazine. The depth of anesthesia was monitored by toe pinches. CSF was collected via the cisterna magna (˜0.05 mL), and it was split into equal aliquots, frozen, and stored at −60 to −80° C.
# Aβ40 = test: Efficacy in reducing Aβ40 in rat plasma (ELISA); type: in vivo; details: 10 mg/kg SC; for reduction in Aβ40: rat plasma; for Percent Decrease in Aβ 40 in Rat Plasma: mean of 3 rats, negative = decrease
# Procedure: as §2
# Rats (n=3 per peptide) were administered with P8, 8M1D, or 8M2D (10 mg/kg) subcutaneously, and plasma were collected at 0, 6, 12, and 24 h after dosing and Aβ40 analysis was carried out by ELISA (Invitrogen).
# γ-secretase = details: phase III clinical trial, cited from earlier work
# [4] = 10 mg/kg IV and SC, at Cmax and most subsequent time points
compound,measurement,setting,value
"CC(C)C[C@H](NC(=O)[C@H](CCC(=O)O)NC(=O)[C@H](CCC(=O)O)NC(=O)[C@H](CC(=O)O)NC(=O)[C@H](CCC(=O)O)NC(=O)[C@H](CCC(=O)O)NC(=O)[C@H](CCC(=O)O)NC(=O)[C@H](N)CC(=O)O)C(N)=O [8M1D, dEEEDEEL-NH2] (H-[dD]EEEDEEL-NH2)",exposure in plasma compared with P8 (in words),[1]; [4],better exposures than P8
same,plasma concentration,"[1]; 10 mg/kg IV, 0 hr (pre-dose)",BQL
same,plasma concentration,"[1]; 10 mg/kg IV, 0.167 hr, 10 mg/kg, in ng/mL (unit assumed)","25,600 and 23,000 and 20,200"
same,plasma concentration,"[1]; 10 mg/kg IV, 0.5 hr, 10 mg/kg, in ng/mL (unit assumed)","7,140 and 8,630 and 6,650"
same,plasma concentration,"[1]; 10 mg/kg IV, 1 hr, 10 mg/kg, in ng/mL (unit assumed)","1,680 and 2,160 and 1,580"
same,plasma concentration,"[1]; 10 mg/kg IV, 2 hr, 10 mg/kg, in ng/mL (unit assumed)",215 and 360 and 290
same,plasma concentration,"[1]; 10 mg/kg IV, 4 hr, 10 mg/kg, in ng/mL (unit assumed)",25.6 and 16.0 and 17.0
same,plasma concentration,"[1]; 10 mg/kg IV, 6 hr, 10 mg/kg",2.93 ^b and 0.805 ^b and 1.48 ^b
same,plasma concentration,"[1]; 10 mg/kg IV, 8 hr",BQL
same,plasma concentration,"[1]; 10 mg/kg IV, 12 hr",BQL
same,plasma concentration,"[1]; 10 mg/kg IV, 24 hr",BQL
same,plasma concentration,"[1]; 10 mg/kg SC, 0 hr (pre-dose)",BQL
same,plasma concentration,"[1]; 10 mg/kg SC, 0.167 hr, 10 mg/kg","20,500 ^a and 19,100 and 25,900"
same,plasma concentration,"[1]; 10 mg/kg SC, 0.5 hr, 10 mg/kg","12,300 ^a and 10,900 and 11,800"
same,plasma concentration,"[1]; 10 mg/kg SC, 1 hr, 10 mg/kg, in ng/mL (unit assumed)","5,440 and 4,310 and 3,410"
same,plasma concentration,"[1]; 10 mg/kg SC, 2 hr, 10 mg/kg, in ng/mL (unit assumed)","1,330 and 1,570 and 642"
same,plasma concentration,"[1]; 10 mg/kg SC, 4 hr, 10 mg/kg, in ng/mL (unit assumed)",49.8 and 75.3 and 43.9
same,plasma concentration,"[1]; 10 mg/kg SC, 6 hr, 10 mg/kg",11.4 and 8.83 ^b and 4.66 ^b
same,plasma concentration,"[1]; 10 mg/kg SC, 8 hr, 10 mg/kg",1.29 ^b and BQL (2×)
same,plasma concentration,"[1]; 10 mg/kg SC, 12 hr",BQL
same,plasma concentration,"[1]; 10 mg/kg SC, 24 hr",BQL
same,stability in fresh human plasma (in words),[2],relatively stable
same,rate at which metabolized in fresh human plasma (in words),[2],slowest
same,% Remaining,[2],100%
same,"remaining at 3 h, 1 µM",[2],115%
same,"remaining at 8 h, 1 µM",[2],100%
same,"remaining at 24 h, 1 µM",[2],89.6%
same,time after dosing at which detectable in CSF,[3]; 10 mg/kg IV and SC,≥ 8 h
same,exposure in CSF compared with P8 (in words),[3]; [4],better exposures than P8
same,"CSF concentration, Mean IV",[3]; 0 hr,0
same,"CSF concentration, Mean IV",[3]; 0.5 hr,67.8
same,"CSF concentration, Mean IV",[3]; 1 hr,80.8
same,"CSF concentration, Mean IV",[3]; 2 hr,65
same,"CSF concentration, Mean IV",[3]; 4 hr,23.4
same,"CSF concentration, Mean IV",[3]; 8 hr,0.913
same,"CSF concentration, Mean IV",[3]; 12 hr,0
same,"CSF concentration, Mean IV",[3]; 24 hr,0.261
same,"CSF concentration, Mean SC",[3]; 0 hr,0
same,"CSF concentration, Mean SC",[3]; 0.5 hr,50.9
same,"CSF concentration, Mean SC",[3]; 1 hr,66.1
same,"CSF concentration, Mean SC",[3]; 2 hr,62.9
same,"CSF concentration, Mean SC",[3]; 4 hr,18.9
same,"CSF concentration, Mean SC",[3]; 8 hr,3.85
same,"CSF concentration, Mean SC",[3]; 12 hr,0
same,"CSF concentration, Mean SC",[3]; 24 hr,0
same,reduction in Aβ40,Aβ40; 12 hr post dosing,about 27%
same,reduction in Aβ40,Aβ40; 24 h post dosing,about 19%
same,Percent Decrease in Aβ 40 in Rat Plasma,Aβ40; 0 h,0.00%
same,Percent Decrease in Aβ 40 in Rat Plasma,Aβ40; 6 h,−23.61%
same,Percent Decrease in Aβ 40 in Rat Plasma,Aβ40; 12 h,−27.34%
same,Percent Decrease in Aβ 40 in Rat Plasma,Aβ40; 24 h,−19.13%
CC(C)[C@H](O)C(=O)N[C@@H](C)C(=O)N[C@@H]1C(=O)N(C)CCc2ccccc21 [semagacestat],functional ability (in words),γ-secretase; patients receiving the higher dose,significant worsening of functional ability
same,effect on improving cognitive functions (in words),γ-secretase; patients,no effects on improving cognitive functions
same,adverse events (in words),γ-secretase,more adverse events including skin cancers and infections
"H-DEEEDEEL-NH2 [8M1, DEEEDEEL-NH2]",rate at which metabolized in fresh human plasma (in words),[2],fastest
same,% Remaining,[2],100%
same,"remaining at 3 h, 1 µM",[2],87.1%
same,"remaining at 8 h, 1 µM",[2],65.1%
same,"remaining at 24 h, 1 µM",[2],47.1%
